Test results taken from patent US20200282010A1, “IMMUNOGENIC COMPOSITIONS AND USES THEREFOR” (Epiaxis Therapeutics Pty Ltd, priority 2017, published 2020).

Columns and labels:
PKC-γ = target: T1, PKC-γ (Homo sapiens, UniProt P05129); experiment: Nuclear localization of PKC-γ (Fn/c, immunofluorescence), specificity; format: cell-based; settings: MCF7 breast cancer cell line; FIG. 1D
T1 construct: endogenous in cells; host or cells: MCF7
Source text: (§1) FIG. 1 is a graphical, schematic and photographic representation showing that PKC-θ can be targeted for therapeutic intervention. A) Depicts the strength of binding of recombinant purified His6-PKC-θ to increasing concentrations of different subunits and subunit combinations (α2, α2β1, and β1) of the importin α/β heterodimer nuclear transport receptor using an AlphaScreen® binding assay as described in Wagstaff et al. (2011. Journal of Biomolecular Screening 16 (2):192-200). B-C) Depicts protein structure of PKC-θ indicating binding locations for the PKC-θ peptide inhibitor, PKCθi (RKEIDPPFRPKVK), including the nuclear localization sequence (NLS) of PKC-θ. D) The specificity of PKCθi was examined on cells treated with this peptide inhibitor. Cells were screened with primary antibodies to PKC-θ (T538p), PKC-β2, PKC-β1, PKC-α, PKC-ε and PKC-γ. The nuclear to cytoplasmic fluorescence ratio (Fn/c) using the equation: Fn/c=(Fn−Fb)/(Fc−Fb), where Fn is nuclear fluorescence, Fc is cytoplasmic fluorescence, and Fb is background fluorescence was used to determine the impact on nuclear translocation/localization. […] EC^50 of inhibitors calculated using GraphPad PRISM software. F) The PKC-θ kinase activity was measured using the PKC kinase activity kit from ENZO life sciences and recombinant PKC-θ; C27 is an inhibitor of PKC-θ kinase activity, which is disclosed in Jimenez et al. (2013. […]

recombinant PKC-θ = recombinant PKC-θ (Homo sapiens, UniProt Q04759); experiment: PKC-θ kinase activity (PKC kinase activity kit, ENZO life sciences); format: biochemical; settings: FIG. 1F
Chain of recombinant PKC-θ (Q04759 whole entry): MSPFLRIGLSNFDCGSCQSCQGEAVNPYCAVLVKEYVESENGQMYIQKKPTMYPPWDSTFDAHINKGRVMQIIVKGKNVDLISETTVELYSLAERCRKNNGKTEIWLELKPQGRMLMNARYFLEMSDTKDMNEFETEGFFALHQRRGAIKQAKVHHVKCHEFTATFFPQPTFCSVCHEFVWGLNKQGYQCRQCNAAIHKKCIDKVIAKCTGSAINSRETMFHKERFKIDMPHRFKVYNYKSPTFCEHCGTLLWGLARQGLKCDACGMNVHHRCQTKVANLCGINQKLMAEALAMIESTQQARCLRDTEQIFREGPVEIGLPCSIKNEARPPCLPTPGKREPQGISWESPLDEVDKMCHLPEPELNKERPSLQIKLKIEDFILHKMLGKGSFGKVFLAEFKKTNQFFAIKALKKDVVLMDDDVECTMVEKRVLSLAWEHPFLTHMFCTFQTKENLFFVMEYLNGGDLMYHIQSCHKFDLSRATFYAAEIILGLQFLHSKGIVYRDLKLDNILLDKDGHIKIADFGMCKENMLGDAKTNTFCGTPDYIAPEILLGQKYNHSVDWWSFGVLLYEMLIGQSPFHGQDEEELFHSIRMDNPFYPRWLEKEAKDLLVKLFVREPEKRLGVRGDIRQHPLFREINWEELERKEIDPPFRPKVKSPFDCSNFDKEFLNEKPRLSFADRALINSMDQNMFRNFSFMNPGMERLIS
Source text: as §1

PKC-θ (T538p) = target: T2, PKC-θ (T538p) (Homo sapiens, UniProt Q04759); experiment: Nuclear localization of PKC-θ (Fn/c, immunofluorescence) in cells treated with peptide inhibitor; format: cell-based; settings: MCF7 breast cancer cell line; FIG. 1D
T2 construct: endogenous in cells; host or cells: MCF7
T2 sequence (Q04759 whole entry): as above
Source text: as §1

[1] = test system: PBMC cells isolated from CR and PD melanoma liquid biopsies; experiment: RT-PCR expression of IL-2, IFN-γ and TNF-α in PBMCs from melanoma patient liquid biopsies; format: cell-based, human; settings: FIG. 2B
Experimental: FIG. 2 is a photographic and graphical representation depicting a PKC-θ resistance signature in CD8^+ T-cells from BRAF negative melanoma patients. A) Melanoma patient formalin-fixed paraffin-embedded (FFPE) tissue from primary tumor baseline biopsy for either a complete response (CR), stable disease (SD) or progressive disease (PD) was processed by 3D high resolution microscopy using a Leica Bond RX Stainer. FFPE tissues were fixed and immunofluorescence microscopy was performed probing with primary antibodies to anti-PD1, anti-PKC-θ (T538p) and anti-CD8 with DAPI. Representative images for each dataset are shown. Graph plots represent the TCFI values for CD8, TNFI for PKC-θ and TCFI for PD1 measured using ImageJ minus background (N=40 cells per a patient sample). B) Peripheral blood mononuclear cells (PBMCs) isolated from melanoma patient liquid biopsies were pre-clinically screened with either control or PKCθi nuclear peptide inhibitor. PBMC Samples were screened in triplicate for expression of IL-2, IFN-γ and TNF-α. C) Melanoma patient FFPE tissue from primary tumor baseline biopsy for CR, SD and two PD cohorts defined by responder or resistant to Dual Immunotherapy was processed by 3D high resolution microscopy using a Leica Bond RX Stainer. FFPE tissues were fixed and immunofluorescence microscopy was performed probing with primary antibodies to anti-PD1, anti-PKC-θ (T538p), anti-CD8 and anti-ZEB1 with DAPI. Representative images for each dataset are shown. Graph plots represent the TCFI values for CD8, TNFI for PKC-θ and TNFI for ZEB1 measured using ImageJ minus background (N=40 cells per a patient sample).
IL-2, IFN-γ and TNF-α are markers of T-cell activation and effector capacity whereas ZEB1 is a negative regulator of T-cell responses and is linked with T-cell effector inhibition as well as cancer progression. Accordingly, the expression of these biomarkers was investigated in the context of modulating the PKC-θ pathway. Employing RT-PCR, the present inventors profiled expression of the effect of PKCθi in PBMC cells isolated from CR and PD melanoma liquid biopsies.

- nuclear localization of PKC-γ (PKC-γ): no effect
- PKC-θ catalytic activity (recombinant PKC-θ): without impacting
- nuclear localization of PKC-θ (PKC-θ (T538p)): markedly inhibit
Sequence: RKEIDPPFRPKVK [PKCθi]
- expression of IFN-γ ([1]; CR patient cohort): some induction
- expression of IL-2 ([1]; CR patient cohort): some induction
- expression of TNF-α ([1]; CR patient cohort): some induction
- expression of IFN-γ ([1]; PD patient cohort): significantly induced
- expression of IL-2 ([1]; PD patient cohort): significantly induced
- expression of TNF-α ([1]; PD patient cohort): significantly induced
